Experimental data taken from ChEMBL document CHEMBL3865849, “Development of N-(4-Phenoxyphenyl)benzenesulfonamide Derivatives as Novel Nonsteroidal Progesterone Receptor Antagonists” (ACS Med Chem Lett, 2016).

Target: Androgen receptor (Mus musculus) (UniProt P19091)
Assay: Antagonist activity at androgen receptor in mouse SC-3 cells assessed as inhibition of DHT-induced cell growth at 1 uM co-treated with DHT measured after 3 days by CCK8 assay

Androgen receptor (Mus musculus), sequence (P19091 whole entry, looked up): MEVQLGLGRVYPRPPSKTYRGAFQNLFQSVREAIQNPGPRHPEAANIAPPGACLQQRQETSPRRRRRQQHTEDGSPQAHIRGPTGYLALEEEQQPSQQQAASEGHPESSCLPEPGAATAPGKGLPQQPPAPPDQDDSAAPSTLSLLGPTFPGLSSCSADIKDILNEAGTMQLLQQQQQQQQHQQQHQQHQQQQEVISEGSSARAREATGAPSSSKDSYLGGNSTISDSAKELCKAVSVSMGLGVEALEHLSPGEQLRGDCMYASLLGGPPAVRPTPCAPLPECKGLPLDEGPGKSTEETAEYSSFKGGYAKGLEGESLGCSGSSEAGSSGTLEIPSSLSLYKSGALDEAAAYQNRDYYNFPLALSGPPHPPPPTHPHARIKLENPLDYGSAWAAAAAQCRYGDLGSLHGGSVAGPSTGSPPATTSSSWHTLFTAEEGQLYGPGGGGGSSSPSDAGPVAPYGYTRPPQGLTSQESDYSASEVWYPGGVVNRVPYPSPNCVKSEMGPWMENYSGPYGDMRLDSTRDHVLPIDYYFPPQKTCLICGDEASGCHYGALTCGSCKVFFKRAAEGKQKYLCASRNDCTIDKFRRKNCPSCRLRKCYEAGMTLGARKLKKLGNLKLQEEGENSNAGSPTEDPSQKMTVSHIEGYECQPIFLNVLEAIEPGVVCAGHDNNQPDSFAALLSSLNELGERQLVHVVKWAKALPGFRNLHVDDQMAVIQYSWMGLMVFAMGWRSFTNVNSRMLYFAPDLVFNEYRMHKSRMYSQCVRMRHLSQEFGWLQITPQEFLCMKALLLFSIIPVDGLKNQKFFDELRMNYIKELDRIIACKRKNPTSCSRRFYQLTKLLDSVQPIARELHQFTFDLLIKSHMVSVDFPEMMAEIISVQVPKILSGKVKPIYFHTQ

SMILES: O=S(=O)(Nc1ccc(Oc2ccccc2)cc1)c1cccc(Cl)c1
- inhibition: 8.4%
